The text below walks through data of article PMC10916382, “Repurposing screen identifies novel candidates for broad-spectrum coronavirus antivirals and druggable host targets” (Antimicrobial Agents and Chemotherapy, 2024).

In one data set the test system is HCoV-229E. Put plainly: microbe, parasite or virus in culture. The conditions noted are these: Human coronavirus 229E, Huh7.5, read-out: IC50 (µM), HCoV 229E. In kind it is cell-based, Homo sapiens sapiens.
Data set [1] in a line: in vitro. The conditions noted are these: human.
Data set [2] can be described thus: in vitro. The conditions noted are these: for viability: Anti-SARS-CoV-2 screening on Calu-3 cells: viability [% of control], Calu-3 cells.
Setting [3] is: Huh-7.5/F-Luc cells, maximum tested dose 5 µM.
Setting [4] is: Calu-3 cells, immunofluorescence imaging.

Like-named read-outs stand apart in the source and are kept apart here.

For the compound `C[C@@H]1CCCN1CCc1cc2cc(-c3ccc(C#N)cc3)ccc2o1` [RFM-000-099-7], the IC50 in the data set on HCoV-229E was found to be 1.39 µM. Also, in the data set on Huh-7.5/F-Luc cells (setting [3]), the “CC50 (µM)” value is recorded as “greater than maximum tested dose”. Moreover, the “Anti-SARS-CoV-2 screening on Calu-3 cells: intracellular SARS-CoV-2 infection measured via immunofluorescence imaging [% of control]” value (shortened to “Anti-SARS-CoV-2 screening … [% of control]”) in the data set on SARS-CoV-2 (setting [4]) is given as 114.07 % of control. The viability at 5 µM in the data set “in vitro [1]” is 152%. In the data set “in vitro [2]”, the viability amounted to 98.3%.
Consider `OC1CCN(CCCN2c3ccccc3Sc3ccc(C(F)(F)F)cc32)C1` (centres unmarked) [RFM-010-589-5], for which the IC50 with HCoV-229E is 1.4 µM. The “CC50 (µM)” value with Huh-7.5/F-Luc cells (setting [3]) was “greater than maximum tested dose”. In addition, the “Anti-SARS-CoV-2 screening … [% of control]” value with SARS-CoV-2 (setting [4]) is 102.40 % of control. The viability at 5 µM in the data set “in vitro [1]” was 146%. Moreover, the viability in the data set “in vitro [2]” came out at 110%.
For `Cc1c(NCCN2CCCC2)cc(C(=O)C(C)(C)C)cc1N1CCN(c2ncnc3[nH]nc(Br)c23)CC1` [RFM-011-974-4], in that order: 1.4 µM, “greater than maximum tested dose”, 103.98 % of control, 124% and 104%.
For `CN(C)CCC=C1c2ccccc2C(C)(C)c2ccccc21` [RFM-000-885-5], in that order: 1.34 µM, “greater than maximum tested dose”, 109.53 % of control, 152% and 93%.
`Cc1ccc([C@@H](CCNCC2CCCCC2)[C@@H]2CCOC(C)(C)C2)cc1F` [RFM-013-052-9]: the IC50 in the data set on HCoV-229E is 1.8 µM. The “CC50 (µM)” value with Huh-7.5/F-Luc cells (setting [3]) is on record as “greater than maximum tested dose”. In addition, the “Anti-SARS-CoV-2 screening … [% of control]” value in the data set on SARS-CoV-2 (setting [4]) was 121.52 % of control. Moreover, the viability at 5 µM in “in vitro [1]” was determined as 119%. For the same compound, in “in vitro [2]”, the viability was determined as 102%.
Take `CC(C(O)c1ccccc1)N(C)CC=C1c2ccccc2CCc2ccccc21` (centres unmarked) [RFM-010-015-2]: the IC50 in the data set with HCoV-229E turned out to be 1.96 µM. Besides, the “CC50 (µM)” value in the data set on Huh-7.5/F-Luc cells (setting [3]) was “greater than maximum tested dose”. For the same compound, in the data set on SARS-CoV-2 (setting [4]), the “Anti-SARS-CoV-2 screening … [% of control]” value was 107.49 % of control. The viability at 5 µM in the data set “in vitro [1]” came out at 122%. Besides, in “in vitro [2]”, the viability is 107%.
Turning to `CN(C)CCCN1c2ccccc2Sc2ccc(C(F)(F)F)cc21` [RFM-004-217-1], in the data set with HCoV-229E, the IC50 amounted to 1.19 µM. The “CC50 (µM)” value in the data set on Huh-7.5/F-Luc cells was “greater than maximum tested dose”. Further, the “Anti-SARS-CoV-2 screening … [% of control]” value in the data set on SARS-CoV-2 is listed as 110.23 % of control. Also, in the data set “in vitro [1]”, the viability at 5 µM was 159%. Moreover, the viability at 48 h, 5 µM in the data set “in vitro [2]” amounted to 72.7%.
In the case of `CCCN(CCC)C(=O)C(Cc1ccc(OCCCN2CCN(C)CC2)cc1)NC(=O)c1ccc(Br)cc1` (centres unmarked) [RFM-012-167-5], in the data set with HCoV-229E, the IC50 amounted to 2.36 µM. In the data set with Huh-7.5/F-Luc cells (setting [3]), the “CC50 (µM)” value was “greater than maximum tested dose”. The “Anti-SARS-CoV-2 screening … [% of control]” value in the data set with SARS-CoV-2 (setting [4]) was 114.35 % of control. In the data set “in vitro [1]”, the viability at 5 µM stood at 141%. For the same compound, the viability in “in vitro [2]” was 99.3%.
Turning to `CN(C)CCOC(c1ccccc1)c1ccc(Br)cc1` (centres unmarked) [RFM-010-846-3], the IC50 in the data set on HCoV-229E worked out at 2.14 µM. Further, the “CC50 (µM)” value in the data set with Huh-7.5/F-Luc cells (setting [3]) was “greater than maximum tested dose”. The “Anti-SARS-CoV-2 screening … [% of control]” value in the data set with SARS-CoV-2 (setting [4]) is listed as 102.09 % of control. Moreover, the viability at 5 µM in “in vitro [1]” worked out at 157%. Besides, the viability in “in vitro [2]” amounted to 92.2%.
For the compound `O=c1[nH]c2cc(Cl)ccc2n1C1CCN(CCCC(c2ccc(F)cc2)c2ccc(F)cc2)CC1` [RFM-008-181-2], the 50% inhibitory concentration (IC50) with HCoV-229E was 1.84 µM. Further, the “CC50 (µM)” value with Huh-7.5/F-Luc cells (setting [3]) is listed as “greater than maximum tested dose”. Further, the “Anti-SARS-CoV-2 screening … [% of control]” value with SARS-CoV-2 (setting [4]) is 97.91 % of control. Further, the viability at 5 µM in the data set “in vitro [1]” is 121%. Also, the viability in “in vitro [2]” came out at 107%.

A word on the IC50: it is the concentration that gives 50% inhibition. By viability is commonly meant a read-out of living cells in per cent, often relative to untreated cells.
